Experimental data published in patent US5229412A, “Method for relieving anxiety using 5-hydroxytryptamine-1A-receptor-binding compounds” (The Board of Trustees of the Leland Stanford Junior …, priority 1988, dated 1993).

What was measured:
5-HT1A = biological target: T1, 5-HT1A (Rattus norvegicus, UniProt P19327); experiment: Radioligand binding, 5-HT1A sites labeled by ^3 H-8-OH-DPAT, rat cortex; settings: for IC50: mean ± standard error of 3-4 experiments
T1 construct: rat brain were purchased from Pel-Freez; tissue Pel-Freez (Roger, AR); host or cells: rat brain (cortex) membranes
T1 sequence (P19327 1-422): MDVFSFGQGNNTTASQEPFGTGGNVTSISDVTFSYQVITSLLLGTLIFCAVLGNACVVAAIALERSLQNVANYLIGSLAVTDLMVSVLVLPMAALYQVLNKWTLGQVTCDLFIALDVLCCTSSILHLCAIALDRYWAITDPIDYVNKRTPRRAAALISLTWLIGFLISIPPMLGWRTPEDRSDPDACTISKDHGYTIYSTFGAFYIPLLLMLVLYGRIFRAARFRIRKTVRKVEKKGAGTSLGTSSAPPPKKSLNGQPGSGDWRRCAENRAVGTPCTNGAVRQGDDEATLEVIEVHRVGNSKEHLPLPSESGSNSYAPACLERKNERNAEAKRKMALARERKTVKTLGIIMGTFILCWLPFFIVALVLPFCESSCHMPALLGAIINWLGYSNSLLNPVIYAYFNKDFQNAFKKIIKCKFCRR
Description: (§1) Radioligand binding studies were performed described in Peroutka et al., Molecular Pharmacology (1979) 16:687-699. Briefly, rat brain were purchased from Pel-Freez (Roger, AR). On the day of study, the samples were thawed in Tris-HCl buffer. Tissues were homogenized in 20 volumes Tris-HCl buffer (pH 7.7 at 25° C.) using a Brinkmann Polytron and then centrifuged in an IEC B20A centrifuge at 49,000×g for 10 min. The supernatant was discarded, and the pellet was resuspended in the same volume of Tris-HCl buffer and incubated at 37° C. for 10 min prior to a second centrifugation at 49,000×g for 10 min. The final pellet was resuspended in 80 volumes of Tris-HCl buffer containing 10 μM pargyline, 4 mM calcium chloride and 0.1% ascorbic acid. The suspensions were immediately used in the binding assay. […] Following incubation at 25° C. for 30 minutes, the assays were rapidly filtered under vacuum through #32 glass filters (Schleicher and Scheull: Keene, NH) with two 5 ml washes using 50 mM Tris-HCl buffer. Radioactivity was measured by liquid scintillation spectroscopy in ml of 3a70 Counting Cocktail (Research Products International: Mt. Prospect, IL) at 54% efficiency. […] All drugs were diluted and dissolved in assay buffer.
(§2) Each experiment was performed in triplicate and repeated 3 to 6 times.

non-5-HT1A = experiment: Radioligand binding, non-5-HT1A sites labeled by ^3 H-5-HT + 100 nM 8-OH-DPAT, rat cortex; settings: for potency at non-5-HT1A binding sites (in words) / IC50: rat cortex; for IC50: read-out: Drug Potency (IC50) non-5-HT1A (^3 H-5-HT + 100 nM 8-OH-DPAT), mean ± standard error of 3-4 experiments
Description: as §1, with “Briefly,” for “Radioligand binding studies were performed described in Peroutka et al., Molecular Pharmacology (1979) 16:687-699. Briefly,”, “buffer.” for “buffer. Radioactivity was measured by liquid scintillation spectroscopy in ml of 3a70 Counting Cocktail (Research Products International: Mt. Prospect, IL) at 54% efficiency.”
as §2

5-HT2 = biological target: T2, 5-HT2 (Rattus norvegicus, UniProt P14842); experiment: Radioligand binding, 5-HT2 sites labeled by ^3 H-spiperone, rat cortex; settings: for IC50: mean ± standard error of 3-4 experiments
T2 construct: rat brain were purchased from Pel-Freez; tissue Pel-Freez (Roger, AR); host or cells: rat brain (cortex) membranes
Description: as §1, §2

β-adrenergic receptors = experiment: Radioligand binding, β-adrenergic receptors labeled by ^3 H-dihydroalprenolol (^3 H-DHA), rat cortex; settings: for IC50: mean ± standard error of 3-4 experiments, read-out: Drug Potency (IC50) β-adrenergic (^3 H-DHA); for potency at β-adrenergic receptors relative to 5-HT1A (in words): labeled by ^3 H-DHA
Description: as §1, §2

[1] = Stability of Compounds 8-11 on storage; assay type: physicochemical; settings: methanol; 10 mg/ml, 20° C., 'too months'; read-out: decomposition in methanolic solution
Description: Methanolic solutions (10 mg/ml) are suitable storage forms.

5-HT1A receptors = settings: background statement; cited from earlier work

T2 sequence (P14842 whole entry): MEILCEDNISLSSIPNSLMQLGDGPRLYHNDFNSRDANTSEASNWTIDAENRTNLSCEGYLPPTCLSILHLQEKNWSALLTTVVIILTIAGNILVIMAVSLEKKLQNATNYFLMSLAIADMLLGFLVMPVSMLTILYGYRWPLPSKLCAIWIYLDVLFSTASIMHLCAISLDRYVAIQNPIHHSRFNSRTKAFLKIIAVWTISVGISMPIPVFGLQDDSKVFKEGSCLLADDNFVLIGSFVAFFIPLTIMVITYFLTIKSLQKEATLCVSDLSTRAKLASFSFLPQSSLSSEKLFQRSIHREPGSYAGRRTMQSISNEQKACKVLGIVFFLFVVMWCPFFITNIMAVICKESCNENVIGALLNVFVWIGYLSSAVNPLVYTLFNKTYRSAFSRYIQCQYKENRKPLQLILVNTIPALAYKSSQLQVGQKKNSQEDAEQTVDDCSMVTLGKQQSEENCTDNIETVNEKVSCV

SMILES | potency at the 5-HT1A binding site (in words) (5-HT1A) | IC50 (5-HT1A) [µM] | potency at non-5-HT1A binding sites (in words) (non-5-HT1A) | IC50 (non-5-HT1A) [µM] | potency at 5-HT2 binding sites (in words) (5-HT2) | IC50 (5-HT2) [µM] | IC50 (β-adrenergic receptors) [µM] | degraded at 1460 h [1] [%] | selectivity for β-adrenergic receptors (in words) (β-adrenergic receptors) | inhibition of [^3 H]-8-OH-DPAT binding to 5-HT1A receptors (in words) (5-HT1A receptors) | potency at β-adrenergic receptors relative to 5-HT1A (in words) (β-adrenergic receptors) | Kd (non-5-HT1A; used for Ki calculation) [µM]
CC(C)NC[C@H](O)COc1cccc2ccccc12 [(-)-propranolol] |  |  |  |  |  |  |  |  |  | potent inhibitors |  | 
CC(C)(NCC(O)COc1cccc2[nH]ccc12)[C@H]1CC[C@@](C)(NC(=O)C2=CC3C=CC2CC3)CC1 (some centres unmarked) [Compound 15] | extremely potent | 0.0011 ± 0.0001 | approximately less potent | 1.3 ± 0.5 | approximately less potent |  | 0.019 ± 0.009 |  |  |  | approximately an order of magnitude less potent | 
CC(C)(NCC(O)COc1cccc2[nH]c(C#N)cc12)[C@H]1CC[C@@](C)(NC(=O)CBr)CC1 (some centres unmarked) [Compound 11] | similar, though less potent, affinity | 0.0053 ± 0.002 | least potent | 0.41 ± 0.2 | least potent | 4.4 ± 2 | 0.0011 ± 2e-05 | < 5 |  |  |  | 
NCCc1c[nH]c2ccc(O)cc12 [^3 H-5-HT, 5-Hydroxytryptamine] |  |  |  |  |  |  |  |  |  |  |  | 0.0032
O=C1c2ccccc2S(=O)(=O)N1CCCCN1CCN(c2ncccn2)CC1 [TVX Q 7821] |  |  |  |  |  |  |  |  |  | potent inhibitors |  | 
O=C1CC2(CCCC2)CC(=O)N1CCCCN1CCN(c2ncccn2)CC1 [Buspirone] |  |  |  |  |  |  |  |  |  | potent inhibitors |  | 
CN1CCC(=C2c3ccccc3CCc3sccc32)CC1 [pizotifen] |  |  |  |  |  |  |  |  |  | potent inhibitors |  | 
CN1CCC(=C2c3ccccc3C=Cc3ccccc32)CC1 [cyproheptadine] |  |  |  |  |  |  |  |  |  | potent inhibitors |  | 
COC(=O)/C=C/C(=O)N[C@]1(C)CC[C@H](C(C)(C)NCC(O)COc2cccc3[nH]ccc23)CC1 (some centres unmarked) [Compound 13] | extremely potent | 0.0012 ± 0.0002 | approximately less potent | 2.9 ± 0.8 | approximately less potent | 3.6 ± 1 | 0.01 ± 0.005 |  |  |  | approximately an order of magnitude less potent | 

Now from value to compound, other results behind:

potency at the 5-HT1A binding site (in words) (5-HT1A) | IC50 (5-HT1A) [µM] | potency at non-5-HT1A binding sites (in words) (non-5-HT1A) | IC50 (non-5-HT1A) [µM] | potency at 5-HT2 binding sites (in words) (5-HT2) | IC50 (5-HT2) [µM] | IC50 (β-adrenergic receptors) [µM] | degraded at 1460 h [1] [%] | SMILES | selectivity for β-adrenergic receptors (in words) (β-adrenergic receptors) | inhibition of [^3 H]-8-OH-DPAT binding to 5-HT1A receptors (in words) (5-HT1A receptors) | potency at β-adrenergic receptors relative to 5-HT1A (in words) (β-adrenergic receptors) | Kd (non-5-HT1A; used for Ki calculation) [µM]
similar, though less potent, affinity | 0.0063 ± 0.002 | least potent | 0.14 ± 0.07 | least potent | 3.1 ± 1 | 0.0013 ± 0.0002 | < 5 | CC(C)(NC(=O)CBr)[C@H]1CC[C@@](C)(NCC(O)COc2cccc3[nH]ccc23)CC1 (some centres unmarked) [Compound 8, N^8-(Bromoacetyl)-N^1-[3-(4-indolyloxy)-2-hydroxypropyl]-(Z)-1,8-diamino-p-menthane] |  |  |  | 
similar, though less potent, affinity | 0.031 ± 0.008 | least potent | 0.27 ± 0.05 | least potent | 1.1 ± 0.5 | 0.0028 ± 0.0005 |  | COC(=O)/C=C/C(=O)NC(C)(C)[C@H]1CC[C@@](C)(NCC(O)COc2cccc3[nH]ccc23)CC1 (some centres unmarked) [Compound 12] | most selective for β-adrenergic receptors |  |  | 
extremely potent | 0.00071 ± 2e-05 | approximately less potent | 0.43 ± 0.2 | approximately less potent | 4 ± 0.5 | 0.0056 ± 0.0005 | < 5 | CC(C)(NCC(O)COc1cccc2[nH]ccc12)[C@H]1CC[C@@](C)(NC(=O)CBr)CC1 (some centres unmarked) [Compound 9, N^1 (Bromoacetyl)-N^8-[3-(4-indolyloxy)-2-hydroxypropyl]-(Z)-1,8-diamino-p-menthane] |  |  | approximately an order of magnitude less potent | 
similar, though less potent, affinity | 0.026 ± 0.008 | least potent | 0.046 ± 0.01 | least potent |  | 0.0042 ± 0.002 |  | CC(C)(NC(=O)C1=CC2C=CC1CC2)[C@H]1CC[C@@](C)(NCC(O)COc2cccc3[nH]ccc23)CC1 (some centres unmarked) [Compound 14] | most selective for β-adrenergic receptors |  |  | 
 |  |  |  |  |  |  | < 5 | CC(C)(NC(=O)CBr)[C@H]1CC[C@@](C)(NCC(O)COc2cccc3[nH]c(C#N)cc23)CC1 (some centres unmarked) [Compound 10, N^8-(Bromoacetyl)-N1-[3-[(2-cyano-4-indolyl)oxy]-2-hydroxYpropyl]-(Z)-1,8-diamino-p-menthane] |  |  |  | 
